Entries after “also recorded” stand apart in the source; their conditions may differ.
What was measured:
[1] = Sensory evaluation of aqueous solutions containing 10 ppm of N-isobutyl-2,6,8-decatrienamide; format: in vivo; details: aqueous solution containing 10 ppm
Description: The sensory evaluation was performed using aqueous solutions respectively containing 10 ppm of N-isobutyl-2,6,8-decatrienamide obtained in Example 2 and Comparative Example 1.

[2] = Thermal stability evaluation of crude product at 180° C. (GC, hexadecane internal standard); format: physicochemical; details: crude product before distillation, stirring at 180° C. in a stream of nitrogen, after 3 hours, GC area ratio vs hexadecane
Description: The crude product of N-isobutyl-2,6,8-decatrienamide obtained in Example 2 before the distillation and the crude product obtained in Comparative Example 1 were compared as follows in terms of thermal stability at 180° C. assuming distillation at high temperature.
In a stream of nitrogen, 1 g of each of the crude products was put into a flask together with 0.1 g of hexadecane as an internal standard substance, followed by stirring at 180° C. for […]. By gas chromatography, the area ratio of N-isobutyl-2,6,8-decatrienamide was compared with the area ratio of the internal standard substance to measure the remaining percentage of N-isobutyl-2,6,8-decatrienamide.

| SMILES | Sensory evaluation (numbing and astringent actions) [1] | remaining percentage of N-isobutyl-2,6,8-decatrienamide [2] |
| --- | --- | --- |
| CC=CC=CCC/C=C/C(=O)NCC(C)C (racemic) [Example 2, N-isobutyl-2,6,8-decatrienamide] | excellent numbing and astringent actions; also recorded: clear and strong | 98% |
| CC=CC=CCCC=CC(=O)NCC(C)C [Comparative Example 1, N-isobutyl-2,6,8-decatrienamide, reference compound] |  | 89% |

— patent US9029593B2, “Method for manufacturing spilanthol and intermediate manufacturing product therefor” (Takasago International Corporation, priority 2009, dated 2015)
